Earlier results as cited in patent US11252971B2, “Antimicrobial packaging films” (Cryovac, LLC, priority 2017, dated 2022).

Settings: GRAS by the U.S. Food and Drug Administration

For `CCCCCCCCCCCC(=O)N[C@@H](CCCNC(=N)N)C(=O)OCC.Cl` [LAE, ethyl-N^α-dodecanoyl-L-arginate.HCl], the Toxicity is listed as “nontoxic”.
